Data published in paper PMC4148173 (Journal of Medicinal Chemistry, 2014).
Each block holds one compound with its values, some of them ahead of it.

Columns and labels:
human D3R [1] = molecular target: T1, human D3R (Homo sapiens, UniProt P35462); test: β-Arrestin-2 recruitment assay; format: cell-based; settings: for D3R IC50 ± SEM: inhibition of (+)-PD128907-induced arrestin translocation in U2OS cells expressing D3R; for selectivity ratio (D2R IC50)/(D3R IC50): β-arrestin-2 recruitment antagonist selectivity
human D2R = human D2R (Homo sapiens, UniProt P14416); test: [35S]GTPγS binding assay, CHO-hD2 membranes; format: biochemical; settings: for stimulation of [35S]GTPγS binding, D2R: agonist test; for inhibition of basal [35S]GTPγS binding at D2R: up to 1 μM concentration
human D3R [2] = molecular target: T1, human D3R; test: [35S]GTPγS binding assay, CHO-hD3 membranes; format: biochemical; settings: for stimulation of [35S]GTPγS binding, D3R: agonist test; for inhibition at 10 µM: read-out: inhibition of D3R basal [35S]GTPγS binding; for inhibition of basal [35S]GTPγS binding at D3R: up to 1 μM concentration
human D3R [3] = molecular target: T1, human D3R; test: [125I]IABN displacement binding, HEK cell membranes expressing human D3R
human D2LR = human D2LR (Homo sapiens, UniProt P14416); test: [125I]IABN displacement binding, HEK cell membranes expressing human D2LR
human D2L receptors = human D2L receptors (Homo sapiens, UniProt P14416); test: β-Arrestin-2 recruitment assay; format: cell-based; settings: standard agonist
rats = settings: cited from earlier work

T1 sequence (P35462 whole entry): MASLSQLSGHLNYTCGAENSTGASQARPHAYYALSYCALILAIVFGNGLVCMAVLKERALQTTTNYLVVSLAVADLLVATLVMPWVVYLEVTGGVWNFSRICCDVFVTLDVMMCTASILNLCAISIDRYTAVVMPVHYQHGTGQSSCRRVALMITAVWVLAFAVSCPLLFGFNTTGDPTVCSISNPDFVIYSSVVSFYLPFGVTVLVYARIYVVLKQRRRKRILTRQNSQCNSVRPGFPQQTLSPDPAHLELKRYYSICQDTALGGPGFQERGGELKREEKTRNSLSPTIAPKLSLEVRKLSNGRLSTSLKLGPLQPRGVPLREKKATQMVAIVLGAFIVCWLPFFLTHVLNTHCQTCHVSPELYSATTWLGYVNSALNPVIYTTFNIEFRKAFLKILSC
human D2R, sequence (P14416 whole entry): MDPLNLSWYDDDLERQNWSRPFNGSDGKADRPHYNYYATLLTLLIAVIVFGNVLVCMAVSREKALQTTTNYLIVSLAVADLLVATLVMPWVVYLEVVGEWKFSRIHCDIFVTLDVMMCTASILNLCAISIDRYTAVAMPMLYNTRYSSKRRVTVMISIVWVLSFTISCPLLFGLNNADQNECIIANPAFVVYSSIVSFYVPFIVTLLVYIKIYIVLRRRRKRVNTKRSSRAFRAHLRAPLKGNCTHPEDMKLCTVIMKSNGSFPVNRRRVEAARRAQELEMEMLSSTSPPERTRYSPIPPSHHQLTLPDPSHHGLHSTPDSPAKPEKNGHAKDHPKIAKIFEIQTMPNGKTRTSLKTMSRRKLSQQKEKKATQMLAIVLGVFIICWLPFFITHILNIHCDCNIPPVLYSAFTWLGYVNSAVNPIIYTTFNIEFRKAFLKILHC
human D2LR, sequence (P14416 whole entry): as above
human D2L receptors, sequence (P14416 whole entry): as above

Structure (SMILES): CCCN1CCO[C@@H]2c3cc(O)ccc3OC[C@H]21 [PD128907, reference compound]
agonist EC80 dose, D3R (human D3R [1]; β-arrestin recruitment, standard agonist): 8 nM

Structure (SMILES): CC(C)(C)c1nc(N2CCN(CCCCNC(=O)c3cn4ccncc4n3)CC2)cc(C(F)(F)F)n1 [Compound 30, N-(4-(4-(2-(tert-Butyl)-6-(trifluoromethyl)pyrimidin-4-yl)piperazin-1-yl)butyl)imidazo[1,2-a]pyrazine-2-carboxamide]
Kb (human D2R): 25 ± 6 nM
stimulation of [35S]GTPγS binding, D2R (human D2R): did not stimulate
inhibition of basal [35S]GTPγS binding at D2R (human D2R): less than 30%
Kb (human D3R [2]): 0.33 ± 0.05 nM
stimulation of [35S]GTPγS binding, D3R (human D3R [2]): did not stimulate
inhibition at 10 µM (human D3R [2]): 40 to 60%
inhibition of basal [35S]GTPγS binding at D3R (human D3R [2]): less than 30%

Structure (SMILES): COc1ccccc1N1CCN(CCCCNC(=O)c2cn3ccccc3n2)CC1 [Compound 7, N-(4-(4-(2-Methoxyphenyl)piperazin-1-yl)butyl)imidazo[1,2-a]pyridine-2-carboxamide]
enhancement in affinity at the D3R (human D3R [3]; compared to compound 6): ~3 fold
D3R IC50 ± SEM (human D3R [1]): subnanomolar
higher affinity at D2R (human D2LR; compared to compound 6): ~10 fold

Structure (SMILES): CC(C)(C)c1nc(N2CCN(CCCCNC(=O)c3cn4ccccc4n3)CC2)cc(C(F)(F)F)n1 [Compound 25, N-(4-(4-(2-(tert-Butyl)-6-(trifluoromethyl)pyrimidin-4-yl)piperazin-1-yl)butyl)imidazo[1,2-a]pyridine-2-carboxamide]
selectivity ratio (D2R Ki/D3R Ki) (human D3R [3]; Table 1, binding selectivity): > 100
Kb (human D2R): 111 ± 25 nM
stimulation of [35S]GTPγS binding, D2R (human D2R): did not stimulate
inhibition of basal [35S]GTPγS binding at D2R (human D2R): less than 30%
D3R IC50 ± SEM (human D3R [1]): subnanomolar
selectivity ratio (D2R IC50)/(D3R IC50) (human D3R [1]): > 400
cocaine self-administration, cocaine reward, cue-induced reinstatement of cocaine-seeking, cocaine-induced place preference (rats; rat models): significantly attenuating
effect on food reward or spontaneous locomotor activity (rats; rats, at doses decreasing cocaine effects): no effect
cocaine reward, cocaine seeking, preference for cocaine-associated environments, and cocaine induced locomotor activity (rats; rats): significant decreases
Kb (human D3R [2]): 1.3 ± 0.4 nM
stimulation of [35S]GTPγS binding, D3R (human D3R [2]): did not stimulate
inhibition at 10 µM (human D3R [2]): 40 to 60%
inhibition of basal [35S]GTPγS binding at D3R (human D3R [2]): less than 30%

Structure (SMILES): O=C(NCCCCN1CCN(c2cccc(Cl)c2Cl)CC1)c1cn2ccccc2n1 [Compound 8, N-(4-(4-(2,3-Dichlorophenyl)piperazin-1-yl)butyl)imidazo[1,2-a]pyridine-2-carboxamide]
Kb (human D2R): 1.1 ± 0.2 nM
stimulation of [35S]GTPγS binding, D2R (human D2R): did not stimulate
inhibition of basal [35S]GTPγS binding at D2R (human D2R): less than 30%
D3R IC50 ± SEM (human D3R [1]): subnanomolar
selectivity ratio (D2R IC50)/(D3R IC50) (human D3R [1]): > 400
Kb (human D3R [2]): 0.0038 ± 0.0013 nM
stimulation of [35S]GTPγS binding, D3R (human D3R [2]): did not stimulate
inhibition of basal [35S]GTPγS binding at D3R (human D3R [2]): less than 30%

Further lines, results first:

lower binding potency at D3R (human D3R [3]; compared to compound 25): 2.6 fold
lower binding potency at D2R (human D2LR; compared to compound 25): 1.8 fold
Structure (SMILES): CC(C)(C)c1nc(N2CCN(CCCCNC(=O)c3cc4ccccc4[nH]3)CC2)cc(C(F)(F)F)n1 [Compound 26, N-(4-(4-(2-(tert-Butyl)-6-(trifluoromethyl)pyrimidin-4-yl)piperazin-1-yl)butyl)-1H-indole-2-carboxamide]

agonist EC80 dose, D2R (human D2L receptors): 6 nM
Structure (SMILES): CCCN1C[C@H](CSC)C[C@@H]2c3cccc4[nH]cc(c34)C[C@H]21 [pergolide]

stimulation of [35S]GTPγS binding, D2R (human D2R): did not stimulate
inhibition of basal [35S]GTPγS binding at D2R (human D2R): less than 30%
stimulation of [35S]GTPγS binding, D3R (human D3R [2]): did not stimulate
inhibition at 10 µM (human D3R [2]): 40 to 60%
inhibition of basal [35S]GTPγS binding at D3R (human D3R [2]): less than 30%
Structure (SMILES): CC(C)(C)c1nc(N2CCN(CCCCNC(=O)[C@H]3CC[C@H](c4ccccc4)CC3)CC2)cc(C(F)(F)F)n1 [Compound 39, trans-N-(4-(4-(2-(tert-Butyl)-6-(trifluoromethyl)pyrimidin-4-yl)piperazin-1-yl)butyl)-4-phenylcyclohexanecarboxamide]
